Assay results: the supplement of paper PMC11061612

How the values were obtained:
Assay in all cases: combination Emax (second highest fraction inhibited in the dose matrix, 72 h); higher = more inhibition; extreme values may be limits of the assay
[1] = tested on: NCI-H226 (Mesothelioma)
Summary of the method: (§1)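 Cell lines grown in DMEM/F12 or RPMI with 10% FBS were plated in 1536-well plates and held 24 hours at 37°C, 5% CO2 before 72 hours of exposure to two-drug dose matrices, with DMSO typically at 0.2%. CellTiter-Glo 2.0 luminescence gave viability, which was converted to inhibition. Vehicle wells were set to 0 and blank wells to 1. Combination Emax is the second-highest inhibition in the matrix, and Bliss excess is the observed combination effect minus the expected EA + EB − EA·EB, where EA and EB are the single-agent effects.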

[2] = tested on: MOLT-13 (T-Lymphoblastic Leukemia)
Summary of the method: as §1

[3] = tested on: NCI-H1876 (Small Cell Lung Carcinoma)
Summary of the method: as §1

[4] = tested on: P32-ISH (Burkitt's Lymphoma)
Summary of the method: as §1

[5] = tested on: COR-L88 (Small Cell Lung Carcinoma)
Summary of the method: as §1

[6] = tested on: PA-TU-8988T (Pancreatic Carcinoma)
Summary of the method: as §1

[7] = tested on: DBTRG-05MG (Glioblastoma)
Summary of the method: as §1

[8] = tested on: UACC-257 (Melanoma)
Summary of the method: as §1

[9] = tested on: CL-11 (Colorectal Carcinoma)
Summary of the method: as §1

[10] = tested on: P30-OHK (B-Lymphoblastic Leukemia)
Summary of the method: as §1

[11] = tested on: ES6 (Ewing's Sarcoma)
Summary of the method: as §1

[12] = tested on: SUP-M2 (T-Cell Non-Hodgkin's Lymphoma)
Summary of the method: as §1

[13] = tested on: NCI-H1963 (Small Cell Lung Carcinoma)
Summary of the method: as §1

[14] = tested on: NMC-G1 (Low Grade Glioma)
Summary of the method: as §1

[15] = tested on: SAT (Head and Neck Carcinoma)
Summary of the method: as §1

[16] = tested on: SNU-407 (Colorectal Carcinoma)
Summary of the method: as §1

[17] = tested on: OAW-28 (Ovarian Carcinoma)
Summary of the method: as §1

[18] = tested on: SNU-C2B (Colorectal Carcinoma)
Summary of the method: as §1

[19] = tested on: MDA-MB-415 (Breast Carcinoma)
Summary of the method: as §1

[20] = tested on: CPC-N (Small Cell Lung Carcinoma)
Summary of the method: as §1

SMILES | combination Emax [1] | combination Emax [2] | combination Emax [3] | combination Emax [4] | combination Emax [5] | combination Emax [6] | combination Emax [7] | combination Emax [8] | combination Emax [9] | combination Emax [10] | combination Emax [11] | combination Emax [12] | combination Emax [13] | combination Emax [14] | combination Emax [15] | combination Emax [16] | combination Emax [17] | combination Emax [18] | combination Emax [19] | combination Emax [20]
CC1(C)CCC(CN2CCN(c3ccc(C(=O)NS(=O)(=O)c4ccc(NCC5CCOCC5)c([N+](=O)[O-])c4)c(Oc4cnc5[nH]ccc5c4)c3)CC2)=C(c2ccc(Cl)cc2)C1 [Venetoclax] + COc1cc(Nc2ncc3c(n2)-c2ccc(Cl)cc2C(c2c(F)cccc2OC)=NC3)ccc1C(=O)O [Alisertib] (first compound max 1 µM, 7x7, partner max 10 µM) | 0.224 | 0.896 | 0.866 | 1 | 0.727 | 0.403 | 0.279 | 0.191 | 0.673 | 1 | 0.277 | 0.902 | 0.949 | 0.244 | 0.545 | 0.631 | 0.476 | 0.291 | 0.379 | 0.835
CC1(C)CCC(CN2CCN(c3ccc(C(=O)NS(=O)(=O)c4ccc(NCC5CCOCC5)c([N+](=O)[O-])c4)c(Oc4cnc5[nH]ccc5c4)c3)CC2)=C(c2ccc(Cl)cc2)C1 [Venetoclax] + C[C@@H]1COCCN1C2=NC(=NC(=C2)C3(CC3)[S@](=N)(=O)C)C4=C5C=CNC5=NC=C4 [AZD6738] (first compound max 1 µM, 7x7, partner max 10 µM) | 0.243 | 1 | 0.942 | 0.933 | 0.769 | 0.345 | 0.288 | 0.169 | 0.681 | 1 | 0.571 | 0.979 | 0.985 | 0.461 | 0.423 | 0.77 | 0.472 | 0.592 | 0.509 | 0.936
CC1(C)CCC(CN2CCN(c3ccc(C(=O)NS(=O)(=O)c4ccc(NCC5CCOCC5)c([N+](=O)[O-])c4)c(Oc4cnc5[nH]ccc5c4)c3)CC2)=C(c2ccc(Cl)cc2)C1 [Venetoclax] + C[C@@H](Nc1cc(F)cc(F)c1)c1cc(C(=O)N(C)C)cc2c(=O)cc(N3CCOCC3)oc12 [AZD8186] (first compound max 1 µM, 7x7, partner max 3 µM) | 0.0928 | 0.431 | 0.182 | 0.341 | 0.617 | 0.257 | 0.12 | 0.121 | 0.083 | 0.794 | 0.198 | 0.344 | 0.758 | 0.171 | 0.345 | 0.142 | 0.331 | 0.125 | 0.663 | 0.835
CC1(C)CCC(CN2CCN(c3ccc(C(=O)NS(=O)(=O)c4ccc(NCC5CCOCC5)c([N+](=O)[O-])c4)c(Oc4cnc5[nH]ccc5c4)c3)CC2)=C(c2ccc(Cl)cc2)C1 [Venetoclax] + Cc1cc2ncnn2cc1Nc1ncc2c(n1)n(C1CCOCC1)c(=O)n2C [AZD7648] (first compound max 1 µM, 7x7, partner max 10 µM) | 0.171 | 0.785 | 0.274 | 0.0629 | 0.515 | 0.238 | 0.209 | 0.159 | 0.157 | 0.569 | 0.37 | 0.283 | 0.744 | 0.192 | 0.284 | 0.373 | 0.152 | 0.26 | 0.342 | 0.84
CC1(C)CCC(CN2CCN(c3ccc(C(=O)NS(=O)(=O)c4ccc(NCC5CCOCC5)c([N+](=O)[O-])c4)c(Oc4cnc5[nH]ccc5c4)c3)CC2)=C(c2ccc(Cl)cc2)C1 [Venetoclax] + Cn1cnc2c(F)c(Nc3ccc(Br)cc3Cl)c(C(=O)NOCCO)cc21 [Selumetinib] (first compound max 1 µM, 7x7, partner max 3 µM) | 0.0891 | 0.804 | 0.205 | 0.239 | 0.543 | 0.272 | 0.285 | 0.621 | 0.528 | 0.303 | 0.162 | 0.366 | 0.76 | 0.175 | 0.566 | 0.504 | 0.284 | 0.27 | 0.176 | 0.734
